One data set deals with HuT 78. Put plainly: Cell death (trypan blue uptake). Conditions: HuT 78 cells, 15 μM, after 24 of culture. The class given is cell-based, human. The protocol:
Human breast (MDA-MB-231, MDA-MB-435 [37]), prostate (LNCaP, from American Type Culture Collection, ATCC, Rockville, MD), and cervical (HeLa) epithelial cancer cells were grown in DMEM-glutamax medium (Gibco Invitrogen, Cergy-Pontoise, France) containing GlutaMAX™, 4.5 g/l glucose and supplemented with 10% heat-inactivated (56°C for 30 min) fetal bovine serum (FBS; Hyclone, Thermo Fisher Scientific, Inc). Human SW480 cells are derived from a grade 3-4 colon carcinoma, while the highly metastatic counterpart SW620 is established from the lymph node of a person. Both SW480 and SW620 cells (obtained from Francis Raul, IRCAD) are highly tumorigenic in nude mice. They were cultured in D-MEM, 10% FCS. The murine melanoma TIII cell line was obtained from Armelle Prévost-Blondel. Murine T29 lymphoma cells, obtained from Philippe Kastner (CNRS, Strasbourg), have been established from Ik^L/L tumors from mice carrying a hypomorphic mutation (Ik^L/L) in the Ikaros gene encoding a transcription factor that regulates lymphocyte differentiation, and acts also as a tumor suppressor in T lymphocytes. The T29 cells were cultured in RPMI medium containing 25 mM Hepes pH 7.6, 1 mM sodium pyruvate, and 10% FCS. Human leukemia cell lines, Jurkat (acute T cell leukemia), HuT 78 (cutaneous T lymphocyte), RAJI (Burkitt lymphoma), and HL60 (promyelocytic leukemia) were cultured in RPMI-1640 medium (Gibco) containing GlutaMAX™, and supplemented with 10% heat-inactivated FBS as described before. The wild-type Chinese hamster ovary cell line (CHO K1) was purchased from American Type Culture Collection (ATCC; Rockville, MD). The CHO LRP1-null cell line (CHO-13-5-1) was kindly provided by D. Strickland [47]. They were cultured in Ham's F12K medium. All cells were cultured with 10% (v/v) heat inactivated (56°C, 30 min) fetal bovine serum (FBS) (Roche Molecular Biochemicals, Indianapolis, IN) and 50 international units/mL penicillin-streptomycin (Invitrogen). Cell death was monitored conveniently by uptake of the trypan blue dye due to plasma membrane permeability of dying and/or dead cells. […]

In data set [1] the test system is surface nucleolin. Put plainly: Binding of biotinylated Nucant to surface nucleolin on MDA-MB 231 cells (avidin recovery, immunoblotting). The arrangement: species or system human. Conditions: data not presented. The protocol: (§1) Two days after seeding, subconfluent cells (about 5 × 10^6 cells/75 cm^2 flask) were incubated (45 min, 20°C) with 5 μM of HB-19/Btn. After washing extensively in PBS containing 1 mM EDTA (PBS-EDTA), nucleus-free cell extracts were prepared in lysis buffer E. The complex formed between cell-surface expressed nucleolin and HB-19/Btn was isolated by purification of the extracts using NeutrAvidin agarose (100 μl; Pierce Biotechnology) in PBS-EDTA. After 3 hours at 6°C, the avidin-agarose samples were washed extensively with PBS-EDTA. The purified surface nucleolin was eluted in the electrophoresis sample buffer containing SDS and analyzed by 10% SDS-polyacrylamide gel electrophoresis (SDS-PAGE). […] All cells investigated in this study (MDA-MB-231, MDA-MB-435, LNCaP, HeLa, SW480, SW620, and T29) expressed the cell surface nucleolin assayed by this procedure.
(§2) Figure 9 Nucant pseudopeptides bind surface nucleolin at a higher affinity compared to binding to nucleophosmin. A. Recovery of surface nucleolin and associated proteins by using biotinylated Nucant. […] Purified material was then analyzed by SDS-PAGE and stained with Brilliant Blue G-Colloidal Concentrate staining (panel Staining). Similar samples were also analyzed by immunoblotting using anti-nucleolin mAb D3 (panel anti-nucleolin) or anti-nucleophosmin mAb EP1848Y (panel anti-nucleophosmin)(Methods). […]

The subject of data set [2] is surface nucleolin. Put plainly: Binding of biotinylated Nucant to surface nucleolin on HuT 78 cells (avidin recovery, immunoblotting). The arrangement: species or system human. Conditions: HuT 78 cells, 0, 1, 2, 4, 8 μM. The protocol: as §1, §2
A general note: A western blot detects proteins with antibodies after separation by electrophoresis.

The subject of a further data set is nucleophosmin. Put plainly: Binding of biotinylated Nucant to nucleophosmin on HuT 78 cells (avidin recovery, immunoblotting). The arrangement: species or system human. Conditions: HuT 78 cells, 0, 1, 2, 4, 8 μM. How it is done:
as §1, §2

The next data set has as its system HuT 78 cells. Put plainly: Cell entry and localization of biotinylated pseudopeptides, immunofluorescence. The class given is cell-based, human. Conditions: HuT 78, 15 μM, 37°C, 5 hours, PFA/Triton fixation, anti-biotin immunofluorescence. The protocol: Figure 8 Nucant pseudopeptides are internalized into cells and accumulate in the cytoplasm without translocation to the nucleus. […] C. […] The nuclei stained with DAPI are shown on the right of each panel. Treatment of HuT 78 cells at 15 μM of biotinylated N3 or N7 leads to 25 and 40% cell death after 24 of culture, respectively.

Where no end group is shown, it is not given here.

“biotinylated N7: biotinylated hexavalent N7 pseudopeptide (chain 1 KAKPGKAKPGKAKPG; chain 2 Lys-Pro-Arg; also: biotinylated (site not given here), hexavalent branched pseudopeptide, linkage not given here)” yielded a cell death with HuT 78 of 40%. The “concentration of maximum binding to surface nucleolin” value turned out to be 3 µM in the data set on surface nucleolin [1] and 4 µM in the data set with surface nucleolin [2]. Moreover, in the data set with nucleophosmin, the “concentration at which nucleophosmin binding occurs” value came to 8 µM. For the same substance, the “cell entry / intracellular localization” value with HuT 78 cells was “most of the signal is located in the cytoplasm, with almost no signal in the nuclei”.

The values are drawn from article PMC3199867, “Targeting surface nucleolin with multivalent HB-19 and related Nucant pseudopeptides results in distinct inhibitory mechanisms depending on the malignant tumor cell type” (BMC Cancer, 2011).
